Structures are written as SMILES.

From patent US7144876B2, “3,5-Disubstituted-[1,2,4]-oxadiazoles and analogs as activators of caspases and inducers of apoptosis and the use thereof” (Cytovia, Inc., priority 2002, dated 2006) come the findings set out here.

In experiment [1] the test system is T-47D. Kind of experiment: Caspase cascade activation assay (N-(Ac-DEVD)-N'-ethoxycarbonyl-R110 fluorogenic substrate) in solid tumor cells. The class given is cell-based, Human. As to conditions: T-47D cells, 48 h incubation; for EC50: Homo sapiens, T47D, sigmoidal dose-response, read-out: Caspase potency EC50; for Caspase activity (Ratio): ratio of net RFU of test compound to that of control samples. The protocol: Human breast cancer cell lines T-47D and ZR-75-1 were grown according to media component mixtures designated by American Type Culture Collection+10% FCS (Invitrogen Corporation), in a 5% CO2-95% humidity incubator at 37° C. T-47D and ZR-75-1 cells were maintained at a cell density between 50 and 80% confluency at a cell density of 0.1 to 0.6×10^6 cells/mL. Cells were harvested at 600×g and resuspended at 0.65×10^6 cells/mL into appropriate media+10% FCS. An aliquot of 45 μl of cells was added to a well of a 96-well microtiter plate containing 2.5 μl of a 10% DMSO in RPMI-1640 media solution containing 0.16 to 100 μM of 3-(3-amino-4-chloro-phenyl)-5-(3-chlorothiophen-2-yl)-[1,2,4]-oxadiazole or other test compound (0.016 to 10 μM final). An aliquot of 22.5 μL of cells was added to a well of a 384-well microtiter plate containing 2.5 μl of a 10% DMSO in RPMI-1640 media solution without test compound as the control sample. The samples were mixed by agitation and then incubated at 37° C. for 48 h in a 5% CO2-95% humidity incubator. After incubation, the samples were removed from the incubator and 25 μL of a solution containing 14 μM of N-(Ac-DEVD)-N′-ethoxycarbonyl-R110 (SEQ ID No.:1) fluorogenic substrate (Maxim, Inc.; WO99/18856), 20% sucrose (Sigma), 20 mM DTT (Sigma), 200 mM NaCl (Sigma), 40 mM Na PIPES buffer pH 7.2 (Sigma), and 500 μg/mL lysolecithin (Calbiochem) was added. The samples were mixed by agitation and incubated at room temperature. Using a fluorescent plate reader (Model SpectraMax Gemini, Molecular Devices), an initial reading (T=0) was made approximately 1–2 min after addition of the substrate solution, employing excitation at 485 nm and emission at 530 nm, to determine the background fluorescence of the control sample. After the 3 h incubation, the samples were read for fluorescence as above (T=3 h).
The Relative Fluorescence Unit values (RFU) were used to calculate the sample readings as follows: RFU(T=3h)−Control RFU(T=0)=Net RFU(T=3h)
The activity of caspase cascade activation was determined by the ratio of the net RFU value for 3-(3-amino-4-chloro-phenyl)-5-(3-chlorothiophen-2-yl)-[1,2,4]-oxadiazole or other test compound to that of control samples. The EC50 (nM) was determined by a sigmoidal dose-response calculation (Prism 2.0, GraphPad Software Inc.).

Experiment [2] deals with T-47D. Description: Inhibition of cell proliferation (GI50), CellTiter 96 AQueous One Solution. The class given is cell-based. As to conditions: Homo sapiens, T47D; T-47D cells, 48 h incubation; dose for 50% inhibition of cell proliferation. The protocol:
T-47D and SKBr-3 cells were grown and harvested as in Example 72. An aliquot of 90 μL of cells (2.2×10^4 cells/mL) was added to a well of a 96-well microtiter plate containing 10 μl of a 10% DMSO in RPMI-1640 media solution containing 1 nM to […] of 3-(3-amino-4-chloro-phenyl)-5-(3-chlorothiophen-2-yl)-[1,2,4]-oxadiazole (0.1 nM to 10 μM final). An aliquot of 90 μL of cells was added to a well of a 96-well microtiter plate containing 10 μL of a 10% DMSO in RPMI-1640 media solution without compound as the control sample for maximal cell proliferation (AMax). The samples were mixed by agitation and then incubated at 37° C. for 48 h in a 5% CO2-95% humidity incubator. After incubation, the samples were removed from the incubator and 20 μL of CellTiter 96 AQUEOUS One Solution Cell Proliferation™ reagent (Promega) was added. The samples were mixed by agitation and incubated at 37° C. for 2–4 h in a 5% CO2-95% humidity incubator. Using an absorbance plate reader (Model 1420 Wallac Instruments), an initial reading (T=0) was made approximately 1–2 min after addition of the solution, employing absorbance at 490 nm. This determines the possible background absorbance of the test compounds. No absorbance for 3-(3-amino-4-chloro-phenyl)-5-(3-chlorothiophen-2-yl)-[1,2,4]-oxadiazole was found at 490 nm. After the 2–4 h incubation, the samples were read for absorbance as above (ATest).
Baseline for GI50 (dose for 50% inhibition of cell proliferation) of initial cell numbers were determined by adding an aliquot of 90 μL of cells or 90 μL of media, respectively, to wells of a 96-well microtiter plate containing 10 μL of a 10% DMSO in RPMI-1640 media solution. The samples were mixed by agitation and then incubated at 37° C. for 0.5 h in a 5% CO2-95% humidity incubator. After incubation, the samples were removed from the incubator and 20 μL of CellTiter 96 AQUEOUS One Solution Cell Proliferation™ reagent (Promega) was added. The samples were mixed by agitation and incubated at 37° C. for 2–4 h in a 5% CO2-95% humidity incubator. Absorbance was read as above, (AStart) defining absorbance for initial cell number used as baseline in GI50 determinations.
Calculation: GI50 (dose for 50% inhibition of cell proliferation) is the concentration where [(ATest−AStart)/(AMax−Astart)]=0.5.

Another experiment deals with MX1. Described as above. The class given is cell-based. Particulars: Homo sapiens; MX1 cells, 48 h incubation; dose for 50% inhibition of cell proliferation.

As a reminder, the EC50 is the concentration that produces a half-maximal response. In general, GI50 refers to the concentration giving 50% growth inhibition. For the compound `Nc1cc(-c2noc(-c3sccc3Cl)n2)ccc1Cl` [Example 1, 3-(3-Amino-4-chloro-phenyl)-5-(3-chlorothiophen-2-yl)-[1,2,4]-oxadiazole], in the experiment on T-47D [1], the EC50 turned out to be 1.98 µM and the “Caspase activity (Ratio)” value is listed as 11.9. This compound also had a GI50 with T-47D [2] of 0.894 µM. Further, halving of growth with MX1 (GI50) required 7 µM.

Turning to `Fc1cc(-c2noc(-c3sccc3Cl)n2)ccc1Cl` [Example 9, 5-(3-Chlorothiophen-2-yl)-3-(4-chloro-3-fluoro-phenyl)-[1,2,4]-oxadiazole], in the experiment on T-47D [1], the EC50 worked out at 3.27 µM and the “Caspase activity (Ratio)” value is recorded as 9.0. The GI50 with T-47D [2] was 0.514 µM. In the experiment with MX1, this compound showed a GI50 of 0.899 µM.

On to `CN(C)c1cc(-c2noc(-c3occc3Br)n2)ccc1Cl` [Example 4, 5-(3-Bromofuran-2-yl)-3-(3-dimethylamino-4-chloro-phenyl)-[1,2,4]-oxadiazole], for which the EC50 in the experiment with T-47D [1] turned out to be 1.85 µM. Further, the “Caspase activity (Ratio)” value in the experiment on T-47D [1] amounted to 11.9. The GI50 amounted to 0.415 µM with T-47D [2] and 0.21 µM with MX1.

`Cc1cc(Cl)ccc1-c1noc(-c2sccc2Cl)n1` [Example 43, 3-(4-Chloro-2-methyl-phenyl)-5-(3-chlorothiophen-2-yl)-[1,2,4]oxadiazole]: in the experiment on T-47D [1], the EC50 came to 0.818 µM and the “Caspase activity (Ratio)” value is 7.9.

For `N#Cc1cc(-c2noc(-c3sccc3Cl)n2)ccc1Cl` [Example 7, 5-(3-Chlorothiophen-2-yl)-3-(4-chloro-3-cyano-phenyl)-[1,2,4]-oxadiazole], in the experiment on T-47D [1], the 50% effective concentration (EC50) stood at 4 µM and the “Caspase activity (Ratio)” value was 3.4.

On to `Cc1cccnc1-c1noc(-c2occc2Br)n1` [Example 57, 5-(3-Bromofuran-2-yl)-3-(3-methyl-pyridin-2-yl)-[1,2,4]oxadiazole], for which, in the experiment on T-47D [1], the EC50 was determined as 0.846 µM and the “Caspase activity (Ratio)” value turned out to be 6.4.

`CC1CCN(c2noc(-c3sccc3Cl)n2)CC1` [Example 22, 5-(3-Chlorothiophen-2-yl)-3-(4-methylpiperidin-1-yl)-[1,2,4]oxadiazole]: in the experiment on T-47D [1], the EC50 worked out at 3.32 µM and the “Caspase activity (Ratio)” value is reported as 5.4.

In the case of `CN(C)c1cc(-c2noc(-c3sccc3Cl)n2)ccc1Cl` [Example 2, 5-(3-Chlorothiophen-2-yl)-3-(3-dimethylamino-4-chloro-phenyl)-[1,2,4]-oxadiazole], the EC50 in the experiment with T-47D [1] was 1.52 µM. Also, the “Caspase activity (Ratio)” value in the experiment with T-47D [1] came out at 15.1. The GI50 with T-47D [2] was 0.36 µM; in the experiment on MX1, 5 µM.

For `O=[N+]([O-])c1cc(-c2noc(-c3sccc3Cl)n2)ccc1Cl` [Example 10, 5-(3-Chlorothiophen-2-yl)-3-(4-chloro-3-nitro-phenyl)-[1,2,4]-oxadiazole], in the experiment on T-47D [1], the EC50 worked out at 3.75 µM and the “Caspase activity (Ratio)” value turned out to be 9.9.

In the case of `Clc1ccc(C=Cc2noc(-c3sccc3Cl)n2)cc1` [Example 13, 3-[2-(4-Chloro-phenyl)-vinyl]-5-(3-chlorothiophen-2-yl)-[1,2,4]-oxadiazole], in the experiment with T-47D [1], the EC50 was 5.55 µM and the “Caspase activity (Ratio)” value came out at 4.4.

On to `Cc1cc(Cl)ccc1-c1noc(-c2occc2Br)n1` [Example 49, 5-(3-Bromofuran-2-yl)-3-(4-chloro-2-methyl-phenyl)-[1,2,4]oxadiazole], for which, in the experiment on T-47D [1], the EC50 came to 1.01 µM and the “Caspase activity (Ratio)” value is 11.9.

Consider `Clc1ccsc1-c1nc(N2CCCCC2)no1` [Example 18, 5-(3-Chlorothiophen-2-yl)-3-(1-piperidinyl)-[1,2,4]-oxadiazole], for which, in the experiment with T-47D [1], the EC50 amounted to 5.04 µM and the “Caspase activity (Ratio)” value worked out at 2.8.

`Cc1cccnc1-c1noc(-c2sccc2Cl)n1` [Example 47, 5-(3-Chlorothiophen-2-yl)-3-(3-methyl-pyridin-2-yl)-[1,2,4]oxadiazole]: in the experiment on T-47D [1], the EC50 came out at 2.44 µM and the “Caspase activity (Ratio)” value turned out to be 4.5.

Turning to `Cc1cc(Cl)cnc1-c1noc(-c2occc2Br)n1` [Example 50, 5-(3-Bromofuran-2-yl)-3-(5-chloro-3-methyl-pyridin-2-yl)-[1,2,4]oxadiazole], in the experiment with T-47D [1], the EC50 was found to be 0.797 µM and the “Caspase activity (Ratio)” value is reported as 5.9.
